This note sets out measurements from PubChem BioAssay AID1259407 (Chemical Carcinogenesis Research Information System (CCRIS), 2018).

In the series the test system is CCRIS mutagenicity, Ames/micronucleus/aberration tests. The series is described as follows: CCRIS mutagenicity studies.
Where [1] appears, read: Test System: AMES SALMONELLA TYPHIMURIUM, Strain/Indicator: TA98, Metabolic Activation: NONE, Method: PREINCUBATION
The mark [2] stands for this setting: Test System: AMES SALMONELLA TYPHIMURIUM, Strain/Indicator: TA100, Metabolic Activation: NONE, Method: STANDARD PLATE.

The structures appear in SMILES notation. The source made the active and inactive calls. The rule behind the calls is not given here.

For `O=[N+]([O-])c1cc2ccc3cccc4ccc(c1)c2c34`, the mutagenic call (Test System: AMES SALMONELLA TYPHIMURIUM, Strain/Indicator: TA96, Metabolic Activation: NONE, Method: STANDARD PLATE) was “active; positive”; the mutagenic call (Test System: AMES SALMONELLA TYPHIMURIUM, Strain/Indicator: TA97, Metabolic Activation: NONE, Method: STANDARD PLATE) is “active; positive”; the mutagenic call (Test System: AMES SALMONELLA TYPHIMURIUM, Strain/Indicator: TA98(1,8-DNP6), Metabolic Activation: NONE) is “active; positive”; the mutagenic call (Test System: AMES SALMONELLA TYPHIMURIUM, Strain/Indicator: TA98(1,8-DNP6), Metabolic Activation: NONE, Method: STANDARD PLATE) was “active; positive”; the mutagenic call (Test System: AMES SALMONELLA TYPHIMURIUM, Strain/Indicator: TA98(1,8-DNP6), Metabolic Activation: RAT, LIVER, S-9, AROCLOR 1254) was “inactive; negative”; the mutagenic call (Test System: AMES SALMONELLA TYPHIMURIUM, Strain/Indicator: TA98(NR), Metabolic Activation: NONE) is “active; positive”. Also, the mutagenic call was “active; positive” (Test System: AMES SALMONELLA TYPHIMURIUM, Strain/Indicator: TA98(NR), Metabolic Activation: NONE, Method: STANDARD PLATE); “active; positive” (Test System: AMES SALMONELLA TYPHIMURIUM, Strain/Indicator: TA98(NR), Metabolic Activation: RAT, LIVER, S-9, AROCLOR 1254); “active; positive” (Test System: AMES SALMONELLA TYPHIMURIUM, Strain/Indicator: TA98, Metabolic Activation: NONE); “active; positive” under setting [1]; “active; positive” (Test System: AMES SALMONELLA TYPHIMURIUM, Strain/Indicator: TA98, Metabolic Activation: NONE, Method: STANDARD PLATE); “active; positive” (Test System: AMES SALMONELLA TYPHIMURIUM, Strain/Indicator: TA98, Metabolic Activation: RAT, LIVER, S-9, AROCLOR 1254). The mutagenic call runs as follows: (Test System: AMES SALMONELLA TYPHIMURIUM, Strain/Indicator: TA98, Metabolic Activation: RAT, LIVER, S-9, PCB (10%), Method: PREINCUBATION) “inactive; negative”; (Test System: AMES SALMONELLA TYPHIMURIUM, Strain/Indicator: TA100(NR), Metabolic Activation: NONE) “inactive; negative”; (Test System: AMES SALMONELLA TYPHIMURIUM, Strain/Indicator: TA100(NR), Metabolic Activation: NONE, Method: STANDARD PLATE) “inactive; negative”; (Test System: AMES SALMONELLA TYPHIMURIUM, Strain/Indicator: TA100(NR), Metabolic Activation: RAT, LIVER, S-9, AROCLOR 1254) “active; positive”; (Test System: AMES SALMONELLA TYPHIMURIUM, Strain/Indicator: TA100, Metabolic Activation: NONE) “active; positive”; under setting [2], “active; positive”. Further, the mutagenic call reads like this: (Test System: AMES SALMONELLA TYPHIMURIUM, Strain/Indicator: TA100, Metabolic Activation: RAT, LIVER, S-9, AROCLOR 1254) “active; positive”; (Test System: AMES SALMONELLA TYPHIMURIUM, Strain/Indicator: TA102, Metabolic Activation: NONE, Method: STANDARD PLATE) “inactive; negative”; (Test System: AMES SALMONELLA TYPHIMURIUM, Strain/Indicator: TA104, Metabolic Activation: NONE) “active; positive”; (Test System: AMES SALMONELLA TYPHIMURIUM, Strain/Indicator: TA104, Metabolic Activation: NONE, Method: STANDARD PLATE) “active; positive”; (Test System: AMES SALMONELLA TYPHIMURIUM, Strain/Indicator: TA104, Metabolic Activation: RAT, LIVER, S-9, AROCLOR 1254) “active; positive”; (Test System: AMES SALMONELLA TYPHIMURIUM, Strain/Indicator: TA1535, Metabolic Activation: NONE, Method: STANDARD PLATE) “inactive; negative”. Moreover, the mutagenic call is “active; positive” (Test System: AMES SALMONELLA TYPHIMURIUM, Strain/Indicator: TA1538, Metabolic Activation: NONE, Method: STANDARD PLATE); “active; positive” (Test System: AMES SALMONELLA TYPHIMURIUM, Strain/Indicator: TA7001, Metabolic Activation: NONE, Method: PREINCUBATION); “active; positive” (Test System: AMES SALMONELLA TYPHIMURIUM, Strain/Indicator: TA7002, Metabolic Activation: NONE, Method: PREINCUBATION); “active; positive” (Test System: AMES SALMONELLA TYPHIMURIUM, Strain/Indicator: TA7003, Metabolic Activation: NONE, Method: PREINCUBATION); “active; positive” (Test System: AMES SALMONELLA TYPHIMURIUM, Strain/Indicator: TA7004, Metabolic Activation: NONE, Method: PREINCUBATION); “active; positive” (Test System: AMES SALMONELLA TYPHIMURIUM, Strain/Indicator: TA7005, Metabolic Activation: NONE, Method: PREINCUBATION). Under “Test System: AMES SALMONELLA TYPHIMURIUM, Strain/Indicator: TA7006, Metabolic Activation: NONE, Method: PREINCUBATION”, the mutagenic call was “active; positive”.
As for `CCCCCOC(=O)C=Cc1ccc([N+](=O)[O-])o1`, the mutagenic call under setting [1] is “active; positive”.
Take `Cc1ccc(C)c(N)c1`: the mutagenic call (Test System: AMES SALMONELLA TYPHIMURIUM, Strain/Indicator: TA97, Metabolic Activation: HAMSTER, LIVER, S-9, AROCLOR 1254 (10%), Method: PREINCUBATION) is “inactive; negative”; the mutagenic call (Test System: AMES SALMONELLA TYPHIMURIUM, Strain/Indicator: TA97, Metabolic Activation: NONE, Method: PREINCUBATION) was “inactive; negative”; the mutagenic call (Test System: AMES SALMONELLA TYPHIMURIUM, Strain/Indicator: TA97, Metabolic Activation: RAT, LIVER, S-9, AROCLOR 1254 (10%), Method: PREINCUBATION) was “inactive; negative”; the mutagenic call (Test System: AMES SALMONELLA TYPHIMURIUM, Strain/Indicator: TA98, Metabolic Activation: HAMSTER, LIVER, S-9, AROCLOR 1254 (10%), Method: PREINCUBATION) is “active; positive”; the mutagenic call under setting [1] was “inactive; negative”; the mutagenic call (Test System: AMES SALMONELLA TYPHIMURIUM, Strain/Indicator: TA98, Metabolic Activation: RAT, LIVER, S-9, AROCLOR 1254 (10%), Method: PREINCUBATION) was “active; positive”. In addition, the mutagenic call (Test System: AMES SALMONELLA TYPHIMURIUM, Strain/Indicator: TA100, Metabolic Activation: HAMSTER, LIVER, S-9, AROCLOR 1254 (10%), Method: PREINCUBATION) is “active; positive”; the mutagenic call (Test System: AMES SALMONELLA TYPHIMURIUM, Strain/Indicator: TA100, Metabolic Activation: NONE, Method: PREINCUBATION) was “inactive; negative”; the mutagenic call (Test System: AMES SALMONELLA TYPHIMURIUM, Strain/Indicator: TA100, Metabolic Activation: RAT, LIVER, S-9, AROCLOR 1254 (10%), Method: PREINCUBATION) was “inactive; negative”; the mutagenic call (Test System: AMES SALMONELLA TYPHIMURIUM, Strain/Indicator: TA1535, Metabolic Activation: HAMSTER, LIVER, S-9, AROCLOR 1254 (10%), Method: PREINCUBATION) is “inactive; negative”; the mutagenic call (Test System: AMES SALMONELLA TYPHIMURIUM, Strain/Indicator: TA1535, Metabolic Activation: NONE, Method: PREINCUBATION) is “inactive; negative”; the mutagenic call (Test System: AMES SALMONELLA TYPHIMURIUM, Strain/Indicator: TA1535, Metabolic Activation: RAT, LIVER, S-9, AROCLOR 1254 (10%), Method: PREINCUBATION) is “inactive; negative”. In addition, the mutagenic call runs as follows: (Test System: AMES SALMONELLA TYPHIMURIUM, Strain/Indicator: TA1537, Metabolic Activation: HAMSTER, LIVER, S-9, AROCLOR 1254 (10%), Method: PREINCUBATION) “active; positive”; (Test System: AMES SALMONELLA TYPHIMURIUM, Strain/Indicator: TA1537, Metabolic Activation: RAT, LIVER, S-9, AROCLOR 1254 (10%), Method: PREINCUBATION) “inactive; negative”.
Turning to `CN(N=O)C(=O)Oc1cccc2ccccc12`, the mutagenic call was “active; positive” (End Point: IN VITRO CHROMOSOMAL ABERRATIONS, Test System: CHINESE HAMSTER V79-E CELLS, Metabolic Activation: NONE) and “active; positive” (Test System: E. COLI WP2, Strain/Indicator: WP2, Metabolic Activation: NONE, Method: STANDARD PLATE).
For the molecule `FC(F)(F)c1ccccc1CN1C2c3ccccc3-c3ccccc3C21` (centres undefined), the mutagenic call under setting [2] is “active; positive”.
